The target of data set [1] is Hematopoietic prostaglandin D synthase (Homo sapiens, UniProt O60760). The experiment in a line: Inhibition of human H-PGDS expressed in Escherichia coli BL21 DE3 cells assessed as reduction in PGD2 production using PGH2 as substrate by RapidFire High Throughput Mass spectrometry.
Data set [2] has as its target T1, Hematopoietic prostaglandin D synthase (Rattus norvegicus, UniProt O35543).
T1 sequence (O35543 whole entry): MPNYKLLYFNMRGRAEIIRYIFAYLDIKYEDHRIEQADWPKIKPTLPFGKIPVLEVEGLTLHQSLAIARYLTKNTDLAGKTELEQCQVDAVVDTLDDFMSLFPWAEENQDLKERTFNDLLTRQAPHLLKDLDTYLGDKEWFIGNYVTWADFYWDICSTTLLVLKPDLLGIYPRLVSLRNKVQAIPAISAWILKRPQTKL
The experiment in a line: Inhibition of H-PGDS in rat RBL cells assessed as reduction in A23187-induced PGD2 production pretreated for 30 mins followed by A23187 addition for 30 mins by RapidFire Mass spectrometry. It counts as cell-based.

The nature of data set [3]: Dose normalized AUC in mouse at 3 mg/kg, po. It counts as ADME, organism-based. Particulars: in vivo. The arrangement: unit not given here.
The nature of data set [4]: Solubility of the compound in FaSSIF at pH 6.5 measured after 4 hrs by HPLC-UV analysis. It counts as ADME.
The target of the next data set is Albumin (Homo sapiens, UniProt P02768). The experiment in a line: Protein binding in human serum albumin by HPLC analysis. The class given is ADME, cell-free. Particulars: read-out: PB (converted).
Chain of Albumin (P02768 whole entry): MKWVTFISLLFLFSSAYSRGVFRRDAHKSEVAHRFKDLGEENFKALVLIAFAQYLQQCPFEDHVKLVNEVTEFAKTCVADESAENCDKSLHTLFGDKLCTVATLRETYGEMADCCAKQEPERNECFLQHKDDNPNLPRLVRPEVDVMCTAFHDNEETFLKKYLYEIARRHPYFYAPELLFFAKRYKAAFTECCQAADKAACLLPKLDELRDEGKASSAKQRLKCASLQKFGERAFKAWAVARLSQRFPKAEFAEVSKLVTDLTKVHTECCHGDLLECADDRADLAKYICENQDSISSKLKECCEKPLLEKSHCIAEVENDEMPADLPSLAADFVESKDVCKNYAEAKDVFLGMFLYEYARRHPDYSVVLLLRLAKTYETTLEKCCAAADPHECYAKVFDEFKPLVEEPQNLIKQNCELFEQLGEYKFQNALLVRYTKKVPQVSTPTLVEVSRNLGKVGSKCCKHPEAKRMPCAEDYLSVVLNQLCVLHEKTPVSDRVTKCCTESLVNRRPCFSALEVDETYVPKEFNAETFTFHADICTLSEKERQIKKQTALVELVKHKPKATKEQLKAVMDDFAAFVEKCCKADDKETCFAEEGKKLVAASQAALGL
The nature of data set [5]: Half life in mouse S9 fraction pretreated for 5 mins followed by incubation with NADP for 30 secs and measured upto 45 mins by LC-MS/MS analysis. It counts as ADME, subcellular. Particulars: time 3030 sec.
Data set [6] is described as follows: Apparent permeability, Papp of the compound at pH 7.4 incubated for 3 hrs by AMP based liquid chromatography. The class given is ADME. Particulars: not told.
A short description of data set [7]: Dissociation constant, pKa of the compound by UV spectroscopy or potentiometric analysis. It counts as physicochemical.
Data set [8] can be described thus: Half life in mouse liver microsomes pretreated for 5 mins followed by incubation with NADP for 30 secs and measured upto 45 mins by LC-MS/MS analysis. It counts as ADME, Microsome. Particulars: time 3030 sec. For orientation: Microsomes from liver hold many membrane-bound enzymes, among them those of drug oxidation.

Values after ≈ are worked out from the molar mass of the structure shown.

Usually IC50 stands for the midpoint of a concentration-inhibition curve. As a reminder, the EC50 is the concentration at which the effect is half-maximal. A word on the solubility: it is the dissolved amount per volume that the medium holds. In general, half-life refers to how long it takes for the measured level to halve. By Papp is commonly meant the rate of passage across a membrane or cell layer, normalised by area and donor concentration. In general, pKa refers to the pH at which an ionisable group is half protonated.

Chain of Hematopoietic prostaglandin D synthase (Homo sapiens, UniProt O60760) (O60760 whole entry): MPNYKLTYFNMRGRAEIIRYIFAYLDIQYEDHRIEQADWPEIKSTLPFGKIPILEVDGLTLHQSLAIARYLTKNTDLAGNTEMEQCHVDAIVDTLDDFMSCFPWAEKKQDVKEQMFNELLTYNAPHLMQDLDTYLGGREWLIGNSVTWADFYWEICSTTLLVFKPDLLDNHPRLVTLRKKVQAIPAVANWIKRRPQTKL

On to `CC(C)(O)[C@H]1CC[C@H](NC(=O)c2cnc3cc(N4CC(F)C4)ncc3c2)CC1`, for which, in data set [1], the IC50 came out at 12 nM. Further, in data set [2], the EC50 was determined as 170 nM. Moreover, the AUC/dose in data set [3] worked out at 19.3. In data set [4], this compound had a solubility at 4 h of 13 µg/mL (≈ 33.6 µM). At Albumin, the fraction unbound was 0.27. For the same compound, the half-life in data set [5] was greater than 3 h.
Turning to `C[C@]1(O)C[C@@H](NC(=O)c2cnc3cc(N4CCC4)ncc3c2)C1`, in data set [1], the IC50 amounted to 56 nM. Besides, the EC50 in data set [2] was 450 nM. For the same compound, the AUC/dose in data set [3] was 46.9. In data set [4], the concentration in solution (solubility at 4 h) came to 460 µg/mL (≈ 1470 µM). In data set [6], the Papp at 3 h came to 3.8 ×10⁻⁶ cm/s. Further, the fraction unbound on Albumin was 0.48. Further, the half-life in data set [5] is greater than 3 h.
`COc1ccc2cc(C(=O)N[C@H]3CC[C@H](C(C)(C)O)CC3)cnc2n1`: the IC50 in data set [1] worked out at 30 nM. In data set [2], the EC50 came out at 150 nM. The compound further displayed a pKa in data set [7] of 2.58. In addition, the half-life in data set [8] was greater than 3 h. This compound returned an AUC/dose in [3] of 64.9. Besides, the solubility at 4 h in [4] is 24 µg/mL (≈ 69.9 µM). In addition, the fraction unbound at Albumin is 0.27.
`O=C(N[C@H]1CCNC1=O)c1cnc2cc(N3CCC3)ncc2c1`: the IC50 in data set [1] was 12 nM. In addition, in data set [2], the EC50 was 110 nM. The same compound yielded an AUC/dose in data set [3] of 250. The same compound came in with a solubility at 4 h in data set [4] of 400 µg/mL (≈ 1280 µM). Besides, the Papp at 3 h in data set [6] was less than 1 ×10⁻⁶ cm/s. Moreover, the fraction unbound on Albumin is 0.41. Also, the half-life in data set [5] is greater than 3 h.
In the case of `C[C@H]1CCN1c1nc2ncc(C(=O)N[C@H]3CC[C@](C)(O)CC3)cc2cc1Cl`, the IC50 in data set [1] was 4.6 nM. Also, the EC50 in data set [2] was 3.7 nM. Besides, the half-life in [8] is greater than 3 h. In [3], this compound showed an AUC/dose of 132. The same compound returned a solubility at 4 h in data set [4] of 740 µg/mL (≈ 1900 µM). The Papp at 3 h in data set [6] was 11 ×10⁻⁶ cm/s. Moreover, at Albumin, the fraction unbound is 0.13.
As for `C[C@H]1CCN1c1nc2ncc(C(=O)N[C@H]3CCNC3=O)cc2cc1Cl`, in [1], the IC50 was 5.1 nM. Also, the 50% effective concentration (EC50) in [2] was 3.8 nM. The half-life in data set [8] was greater than 3 h. For the same compound, in [3], the AUC/dose is 86.2. In addition, the solubility at 4 h in data set [4] is greater than 1000 µg/mL. Further, in data set [6], the Papp at 3 h was less than 0.3 ×10⁻⁶ cm/s. In addition, the fraction unbound on Albumin was 0.19.
Turning to `CC(C)(O)[C@H]1CC[C@H](NC(=O)c2cnc3ccccc3c2)CC1`, the IC50 in data set [1] was 1800 nM. Also, the EC50 in [2] is 30000 nM. Also, in data set [7], the pKa turned out to be 3.02.
Taken in the same sequence, the figures for `CC(C)(O)[C@H]1CC[C@H](NC(=O)c2cnc3cnccc3c2)CC1` were 7700 nM, 39000 nM and 2.74.
On to `CC(N[C@H]1CC[C@H](NC(=O)c2cnc3nc(C4CC4)ccc3c2)CC1)C(F)F` (mixture of isomers), for which the IC50 in data set [1] amounted to 11 nM. Besides, in data set [2], the EC50 is 28 nM. Also, the half-life in data set [8] is greater than 3 h. In data set [3], this compound showed an AUC/dose of 681. Also, in data set [4], the solubility at 4 h is greater than 1000 µg/mL. In data set [6], the Papp at 3 h came out at 17 ×10⁻⁶ cm/s. Further, on Albumin, the fraction unbound is 0.18.
On to `COc1ccc2c(c1)N=CN(C(=O)N[C@H]1CC[C@H](C(C)(C)O)CC1)C2`, for which, in [1], the IC50 is 890 nM. Moreover, the EC50 in [2] was determined as 4300 nM. Moreover, the pKa in data set [7] worked out at 4.31.
In the case of `C[C@]1(O)C[C@H](NC(=O)c2cnc3nc(C4CC4)c(Cl)cc3c2)C1`, the IC50 in data set [1] was 6.4 nM. The EC50 in data set [2] came to 190 nM. In data set [8], the half-life is greater than 3 h. In data set [3], this compound displayed an AUC/dose of 362. This compound gave a solubility at 4 h in data set [4] of 700 µg/mL (≈ 2110 µM). In [6], the Papp at 3 h is 15 ×10⁻⁶ cm/s. The fraction unbound on Albumin is 0.14.
Take `CC(C)(O)[C@H]1CC[C@H](NC(=O)c2cnc3cc(N4CCC4)ncc3c2)CC1`: in data set [1], the IC50 was determined as 3.9 nM. Besides, in data set [2], the EC50 was determined as 24 nM. The AUC/dose in [3] was found to be 41. For the same compound, the concentration in solution in data set [4] (solubility at 4 h) was 11 µg/mL (≈ 29.9 µM). Also, in [6], the Papp at 3 h amounted to 7.8 ×10⁻⁶ cm/s. Besides, on Albumin, the fraction unbound is 0.21. In [5], the half-life turned out to be 2.68 h.
As for `CC(C)(O)[C@H]1C[C@H](NC(=O)c2cnc3nc(C4CC4)c(Cl)cc3c2)C1`, the IC50 in data set [1] was found to be 3.9 nM. The EC50 in data set [2] was determined as 11 nM. In addition, in data set [8], the half-life was greater than 3 h. Also, the AUC/dose in data set [3] is reported as 45.2. The compound also displayed a solubility at 4 h in [4] of 46 µg/mL (≈ 128 µM). Moreover, the Papp at 3 h in data set [6] was 28 ×10⁻⁶ cm/s. Moreover, on Albumin, the fraction unbound was 0.12.
With `O=C(N[C@H]1CCNC1=O)c1cnc2nc(C3CC3)c(Cl)cc2c1`, the IC50 in data set [1] was determined as 4.6 nM. The EC50 in [2] was 14 nM. Besides, in data set [8], the half-life is greater than 3 h. This compound also yielded an AUC/dose in data set [3] of 252. In [4], the solubility at 4 h was found to be 120 µg/mL (≈ 363 µM). The Papp at 3 h in [6] was found to be 3 ×10⁻⁶ cm/s. In addition, the fraction unbound on Albumin was 0.19.
In the case of `COc1cnc2cc(C(=O)N[C@H]3CC[C@H](C(C)(C)O)CC3)cnc2c1`, in [1], the IC50 was 180 nM. Further, the EC50 in data set [2] was 740 nM. For the same compound, the pKa in [7] is less than 2.
`C[C@H]1CCN1c1ccc2cc(C(=O)N[C@H]3CC[C@H](C(C)(C)O)CC3)cnc2n1`: the IC50 in data set [1] was found to be 4.4 nM. For the same compound, the EC50 in data set [2] worked out at 14 nM. In addition, the AUC/dose in data set [3] amounted to 73.7. This compound also showed a solubility at 4 h in data set [4] of 270 µg/mL (≈ 706 µM). Further, the Papp at 3 h in [6] was determined as 2.5 ×10⁻⁶ cm/s. Moreover, the fraction unbound on Albumin was 0.22. Also, in data set [5], the half-life is greater than 3 h.
With `COc1ccc2cc(C(=O)N[C@H]3CC[C@H](C(C)(C)O)CC3)cnc2c1`, the EC50 in data set [2] was 100 nM. The pKa in data set [7] stood at 3.59.
As for `COc1ncc2cc(C(=O)N[C@H]3CC[C@H](C(C)(C)O)CC3)cnc2n1`, in [1], the IC50 turned out to be 140 nM. Further, in data set [2], the EC50 amounted to 2000 nM. Further, the pKa in data set [7] is less than 2.
Taken in the same sequence, the figures for `COc1ccc2nc(C(=O)N[C@H]3CC[C@H](C(C)(C)O)CC3)cnc2c1` were 490 nM, 3200 nM and less than 2.
For `O=C(N[C@H]1CCNC1=O)c1cnc2cc(C3CC3)ncc2c1`, the IC50 in data set [1] came out at 110 nM. For the same compound, in data set [2], the EC50 was found to be 260 nM. In addition, the half-life in data set [8] was determined as 2.45 h. Further, the AUC/dose in data set [3] is 262. Further, in data set [4], the solubility at 4 h is 430 µg/mL (≈ 1450 µM). The Papp at 3 h in data set [6] stood at 3 ×10⁻⁶ cm/s. Besides, on Albumin, the fraction unbound is 0.57.
Regarding `C[C@]1(O)C[C@@H](NC(=O)c2cnc3nc(C4CC4)c(Cl)cc3c2)C1`, in data set [1], the IC50 stood at 7.1 nM. The EC50 in [2] amounted to 54 nM. Also, the half-life in data set [8] is greater than 3 h. In [3], this compound yielded an AUC/dose of 152. The solubility at 4 h in [4] was 31 µg/mL (≈ 93.4 µM). The Papp at 3 h in [6] was 22 ×10⁻⁶ cm/s. Also, the fraction unbound on Albumin was 0.13.
Regarding `COc1ccc2cc(C(=O)N[C@H]3CC[C@H](C(C)(C)O)CC3)nnc2c1`, in data set [1], the IC50 stood at 7900 nM. The EC50 in [2] was greater than 50000 nM. The compound further came in with a pKa in data set [7] of less than 2.
For `COc1cc2ncc(C(=O)N[C@H]3CC[C@H](C(C)(C)O)CC3)cc2cn1`, the IC50 in [1] stood at 45 nM. Also, in data set [2], the EC50 was determined as 190 nM. In [7], the pKa was less than 2. Moreover, in [8], the half-life is greater than 3 h. The AUC/dose in data set [3] is reported as 104. In data set [4], this compound registered a solubility at 4 h of 85 µg/mL (≈ 248 µM). For the same compound, the Papp at 3 h in [6] was found to be 6.1 ×10⁻⁶ cm/s. The fraction unbound on Albumin was 0.33.
Consider `CC(C)(O)[C@H]1CC[C@H](NC(=O)c2cnc3nc(N4CCC4)ncc3c2)CC1`, for which the IC50 in data set [1] was 12 nM. Besides, the EC50 in data set [2] was determined as 340 nM. Moreover, the half-life in [8] stood at 2.43 h. The AUC/dose in data set [3] was found to be 23.4. Also, the concentration in solution in [4] (solubility at 4 h) came to 210 µg/mL (≈ 568 µM). In data set [6], the Papp at 3 h was less than 1 ×10⁻⁶ cm/s. Further, on Albumin, the fraction unbound was 0.46.

These data come from ChEMBL document CHEMBL5260850, “The exploration of aza-quinolines as hematopoietic prostaglandin D synthase (H-PGDS) inhibitors with low brain exposure” (Bioorg Med Chem, 2020).
